Test results reported in patent US20030203908A1, “Dihydrofolate reductase inhibitors” (priority 2000, published 2003).
Structures can show the parent of a compound that is named as a salt. Where two headings read alike, the source gives them in different places.

Columns and labels:
[1] = target: T1, wild-type (wt) DHFR from Plasmodium falciparum (Plasmodium falciparum, UniProt P13922, N108S/R59C); experiment: Inhibition of wild-type pfDHFR (spectrophotometric, Ki); type: biochemical;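 also: Affinity-purified enzyme, initial reaction rates measured across a range of inhibitor concentrations, Ki obtained by nonlinear least-squares fitting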
T1 construct: The Dihydrofolate Reductase Domain of Plasmodium falciparum Thymidylate Synthase-Dihydrofolate Reductase; made in house
Experimental: (§1) For determination of the Ki values of a number of synthesized analogues, the assay reactions were initiated with affinity-purified enzyme (^˜0.005-0.01 U ml^−1), and the initial velocities in the presence of varying concentrations of inhibitors were analysed by non-linear least square fit using Kaleidagraph™ software.

[2] = target: T2, A16V.S108T mutant (mut) of DHFR from Plasmodium falciparum (Plasmodium falciparum, UniProt A7UD81, A16V/S108T); experiment: biochemical
T2 construct: The Dihydrofolate Reductase Domain of Plasmodium falciparum Thymidylate Synthase-Dihydrofolate Reductase; made in house
Experimental: as §1

[3] = test system: A16V.S108T mutant (mut) of DHFR from Plasmodium falciparum; experiment: biochemical; details: resistance factor
Experimental: as §1

[4] = target: T3, human DHFR (Homo sapiens, UniProt P00374); experiment: Inhibition of human DHFR (I50-derived Ki); type: biochemical; details: human DHFR;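 also: recombinant human DHFR expressed in E. coli and purified by methotrexate affinity chromatography, enzyme activity followed spectrophotometrically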
T3 construct: made in house; host or cells: E. coli M15
T3 sequence (P00374 1-187): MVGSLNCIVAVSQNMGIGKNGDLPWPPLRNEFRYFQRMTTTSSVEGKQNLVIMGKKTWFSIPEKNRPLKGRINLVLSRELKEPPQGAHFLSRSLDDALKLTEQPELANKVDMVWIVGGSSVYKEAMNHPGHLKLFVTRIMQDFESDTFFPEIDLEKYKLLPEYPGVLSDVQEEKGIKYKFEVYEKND
Experimental: (§2) Folic acid and NADPH, were purchased from Sigma. Dihydrofolate was prepared from folic acid dithionate reduction. Methotrexate (MTX) was from Lederle Laboratories. MTX sepharose CL-6B was prepared according to the protocol described by Dann. et al. IPTG came from Boehringer Manheim. The expression system used for recombinant human DHFR production, which includes the plasmid PB-E1/RB SII, SphI-HDHFR expressed in E. coli M15, was supplied by Santi, D. V (Department of Biochemistry and Biophysics and Department of Pharmaceutical Chemistry, University of California). Recombinant T. Cruzi DHFR-TS was produced using the system pET 11c with the insertion of the complete ORF of the gene tc-dhfrts. The resulting plasmid was called pET DT.
(§3) Human and T.cruzi DHFR were produced using inducible expression systems. For human DHFR, fresh overnight cultures of E. coli M15, transformed with the plasmid, pB-E1/RB SII, SphI-HDHFR, were grown in LB and 0.1 mg/ml ampicillin medium at 28° C. For T.cruzi DHFR-TS, cultures of E. coli, BL21 (DE3) transformed with the plasmid pETDT system were grown at 37° C. The same purification protocol was used for both systems. When OD600 was at 0.8, cells pellets were collected by centrifugation, suspended in 50 ml of LB medium, containing 0.1 mg/ml of ampicillin. 10 ml of this preinocule was added to 2 litres of LB medium. Cultures were shaken at 28° C. or 37° C. (for human and T. cruzi DHFR respectively) and induction with IPTG ImM was performed when OD600 reached 0.8. After IPTG induction, cells were grown overnight in a shaker at 28° C. or 5 hours at 28° C. or 37° C. (for human and T. cruzi DHFR respectively) and then harvested by centrifugation.
(§4) Cell pellets were suspended in sonication buffer (2× TES DHFR:TES 100 mM, 2-mercaptoethanol 150 mM, EDTA 2 mM pH=7) containing protease inhibitors.
(§5) Crude extract was circulated through the MTX-Sepharose column at 4° C. at a flow rate of 0.2 ml/min until the protein was bound to the resin. The column was washed with an excess of buffer B (KH2PO410 mM pH 7, KC1 1M). Protein was eluted at 0.2 min/ml with an elution buffer (100 mM TES, 10 mM DTT, 2 mM EDTA, DHF 8.5 mM), the elution profile was collected in 1 ml fractions using a Pharmacia LKB Frac 200 collector. Finally, the protein was desalted using molecular size exclusion chromatography in a Pharmacia G-25 column. Fractions containing DHFR activity were pooled and concentrated by ultrafiltration using centripreps Amicon.
(§6) The purity of the protein preparation was assessed by detection of a single band of the correct molecular weight stained with coomasie blue following a 12% SDS-PAGE. Protein concentration was determined by the method of Bradford using a BSA as a standard. DHFR activity was measured spectrophotometrically by monitoring the decrease in absorbance at 340 mm. […] One unit of enzyme, is defined as the amount of enzyme which produces 1 nmol of product per min using ε of 12300M^−1 at 340 nm.
(§7) Inhibition of dihydrofolate reductases by 1,2-dihydro-1,3,5 triazines was analysed with T. cruzi and human DHFR.
(§8) DHFR assays contained 30 mM dihydrofolate, 0.1 mM NADPH, 50 mM TES buffer pH 7, 75 mM 2-mercaptoethanol and specified amounts of inhibitors. The reaction was initiated by addition of 2.8 or 2.3 units of T. cruzi and human, respectively, and monitored at 340 nm.
(§9) Selective inhibition of dihydrofolate reductase by 1,2-dihydro-1,3,5-triazines was analysed with T. cruzi and human DHFR. DHFR assays contained 30 μM dihydrofolate, 0.1 mM NADPH, 50 mM TES buffer pH 7, 75 mM β-mercaptoethanol and specified amounts of inhibitors. The reaction was initiated by addition of 2.8 or 2.3 units of T. cruzi and human enzyme, respectively, and monitored at 340 nm. […] KiI 50=[I]0.5/((1+[S])/Km)

[5] = target: T4, DHFR-TS from Trypanosoma cruzi (Trypanosoma cruzi, UniProt Q27793); experiment: Inhibition of T. cruzi DHFR-TS (I50-derived Ki);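 as to all read-outs here: enzymes were recombinant T. cruzi DHFR-TS and human DHFR, both expressed in E. coli and purified on a methotrexate affinity column, with dihydrofolate and NADPH as substrates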; type: biochemical; details: for Selectivity: human Ki / T. cruzi Ki
T4 construct: pET 11c with the insertion of the complete ORF of the gene tc-dhfrts; made in house; host or cells: E. coli BL21 (DE3)
Experimental: DHFR activity was measured spectrophotometrically by monitoring the decrease in absorbance at 340 mm.
as §7, §8
Selective inhibition of dihydrofolate reductase by 1,2-dihydro-1,3,5-triazines was analysed with T. cruzi and human DHFR. DHFR assays contained 30 μM dihydrofolate, 0.1 mM NADPH, 50 mM TES buffer pH 7, 75 mM β-mercaptoethanol and specified amounts of inhibitors. The reaction was initiated by addition of 2.8 or 2.3 units of T. cruzi and human enzyme, respectively, and monitored at 340 nm.
KiI 50=[I]0.5/((1+[S])/Km)

[6] = test system: wild-type (TM4/8.2) strain of P. falciparum; experiment: microbe, parasite or virus in culture; type: cell-based, Plasmodium falciparum; details: Plasmodium falciparum; wild-type strain TM4/8.2
Experimental: Mol. Biochem. Parasitol. […] Science, 1976, 193, 673-675]. In vitro antimalarial activity was determined by using [^3H]-hypoxanthine incorporation method [Desjardins, R. E.; Canfield, C. J.; Haynes, J. D.; Chulay, J. D. Quantitative assessment of antimalarial activity in vitro by a semiautomated microdilution technique. Antimicrob Agents Chemother. 1979, 16, 710-718]. The drugs were initially dissolved in DMSO and diluted with the culture media. Aliquots (25 μl) of drug solution of different concentrations was placed in 96-well plate together with 200 μl of 1.5% cell suspension of parasitized erythrocytes containing 1-2% parasitemia. Final concentration of DMSO was 0.1% where there was no effect on the parasite growth. The mixtures were incubated in a 3% CO2 incubator at 37° C. After 24 h of incubation, 25 μl (0.25 μCi) of [^3H]-hypoxanthine were added to each well. The mixtures were further incubated under the same condition for 18-24 h. DNA of parasites was harvested onto glass filter paper (Unifilter, Packard, USA). The filters were dried and liquid scintillation fluid was added for radioactivity measurement in a 6-probe liquid scintillation-counter (Packard, USA).

[7] = target: human DHFR; experiment: Inhibition of human DHFR (I50-derived Ki); type: biochemical;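 also: recombinant human DHFR expressed in E. coli and purified by methotrexate affinity chromatography, enzyme activity followed spectrophotometrically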
Experimental: as §2, §3, §4, §5, §6, §7, §8, §9

T4 sequence (Q27793 whole entry): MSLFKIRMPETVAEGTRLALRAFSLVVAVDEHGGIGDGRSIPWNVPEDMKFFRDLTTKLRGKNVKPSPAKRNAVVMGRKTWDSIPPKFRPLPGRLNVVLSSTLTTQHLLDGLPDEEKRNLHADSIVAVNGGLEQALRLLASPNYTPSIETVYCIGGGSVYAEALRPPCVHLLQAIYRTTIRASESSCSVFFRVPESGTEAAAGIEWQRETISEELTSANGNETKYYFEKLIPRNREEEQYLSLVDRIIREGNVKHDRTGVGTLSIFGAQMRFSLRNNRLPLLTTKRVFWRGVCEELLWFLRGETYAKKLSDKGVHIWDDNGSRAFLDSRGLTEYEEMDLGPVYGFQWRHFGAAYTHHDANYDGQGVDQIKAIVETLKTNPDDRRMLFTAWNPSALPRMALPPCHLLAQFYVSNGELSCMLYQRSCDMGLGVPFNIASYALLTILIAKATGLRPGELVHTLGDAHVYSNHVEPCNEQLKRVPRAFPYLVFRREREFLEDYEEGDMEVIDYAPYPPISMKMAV
T1 sequence (P13922 10-228 R59C/N108S): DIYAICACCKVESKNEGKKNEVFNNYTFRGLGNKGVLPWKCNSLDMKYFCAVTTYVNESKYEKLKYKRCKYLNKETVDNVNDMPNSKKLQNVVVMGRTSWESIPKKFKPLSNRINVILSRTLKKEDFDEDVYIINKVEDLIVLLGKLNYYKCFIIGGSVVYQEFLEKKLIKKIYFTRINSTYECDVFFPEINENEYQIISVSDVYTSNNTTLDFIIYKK
T2 sequence (A7UD81 1-231 A16V/S108T): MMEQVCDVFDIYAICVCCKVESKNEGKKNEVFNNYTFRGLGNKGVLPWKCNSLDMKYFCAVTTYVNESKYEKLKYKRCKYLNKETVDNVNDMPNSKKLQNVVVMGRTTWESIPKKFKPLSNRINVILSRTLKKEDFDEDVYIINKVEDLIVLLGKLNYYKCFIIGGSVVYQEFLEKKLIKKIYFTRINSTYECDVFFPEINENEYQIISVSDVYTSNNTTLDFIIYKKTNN

Row | Structure (SMILES) | Ki ([1]; Ki(wt) nM) | Ki [2] | Ki(mut)/Ki(wt) [3] | Ki ([4]; Human Ki (I50)(nM)) | Ki [5] | Selectivity [5] | IC50 [6] | Ki (human)/Ki (P. falc. mut) [7] | Ki (human)/Ki (P. falc. wt) [7] | Ki (human)/Ki (T. cruzi) [7] | Ki ([4]; read-out: Human Ki (I50)) | Ki ([1]; read-out: Ki(wt)) | Ki ([5]; T. cruzi DHFR-TS, read-out: T. cruzi Ki (I50))
1 | NC1=NC(c2cccc(Oc3ccccc3)c2)N(c2cccc(-c3ccccc3)c2)C(N)=N1 (stereo not shown) [1-m-biphenyl-2-m-phenoxyphenyl-4,6-diamino-1,2-dihydro-1,3,5-triazine] | 2 nM | 0.0048 ± 0.0009 µM | 2.2 | – | – | – | – | – | – | – | – | – | –
2 | COc1ccc(C2N=C(N)N=C(N)N2c2ccc(Cl)cc2)cc1OC (stereo not shown) [(Ia) R2=3,4-dimethoxyphenyl] | 32.7 ± 2 nM | 0.124 ± 0.005 µM | 3.8 | 25700 nM | 0.386 µM | 67 | 2.27 µM | – | – | – | – | – | –
3 | COc1cc(OC)cc(C2N=C(N)N=C(N)N2c2ccc(Cl)cc2)c1 (stereo not shown) [(Ia) R2=3,5-dimethoxyphenyl] | 38.3 ± 8 nM | 0.1 ± 0.007 µM | 2.6 | 25800 nM | 0.2 µM | 129 | 3.25 µM | – | – | – | – | – | –
4 | NC1=NC(c2cccc(Oc3ccc(Cl)cc3)c2)N(c2ccc(Cl)cc2)C(N)=N1 (stereo not shown) [(Ia) R2=3-(4-chlorophenoxy)phenyl] | 1.4 ± 0.3 nM | 0.0075 µM | 5.3 | – | – | – | 2.85 µM | – | – | – | – | – | –
5 | NC1=NC(c2cccc(O)c2)N(c2ccc(Cl)cc2)C(N)=N1 (stereo not shown) [(Ia) R2=m-hydroxyphenyl, 1-p-chlorophenyl-2-m-hydroxyphenyl-4,6-diamino-1,2-dihydro-1,3,5-triazine] | 6 ± 0.4 nM | 0.123 ± 0.013 µM | 20.6 | 1680 nM | – | – | 0.048 µM | 13.7 | 280 | 56 | – | – | –
6 | COc1cccc(C2N=C(N)N=C(N)N2c2ccc(Cl)cc2)c1 (stereo not shown) [(Ia) R2=m-methoxyphenyl] | 10.4 ± 1.4 nM | 0.0628 ± 0.0024 µM | 6.0 | – | – | – | 0.577 µM | – | – | – | – | – | –
7 | N#Cc1ccc(C2N=C(N)N=C(N)N2c2ccc(Cl)cc2)cc1 (stereo not shown) [(Ia) R2=p-cyanophenyl] | 11.3 ± 1.4 nM | 0.205 ± 0.022 µM | – | – | 0.65 µM | – | 0.804 µM | – | – | – | – | – | –
8 | NC1=NC(c2ccc(O)cc2)N(c2ccc(Cl)cc2)C(N)=N1 (stereo not shown) [(Ia) R2=p-hydroxyphenyl] | 11.3 ± 1.7 nM | 0.098 ± 0.01 µM | 8.6 | – | – | – | – | – | – | – | – | – | –
9 | NC1=NC(c2ccccc2)N(c2ccc(Cl)cc2)C(N)=N1 (stereo not shown) [(Ia) R2=phenyl, 1-(4′-Chlorophenyl)-2-phenyl-4,6-diamino-1,2-dihydro-1,3,5-triazine hydrochloride] | – | 0.0493 ± 0.0033 µM | – | – | 0.042 µM | – | 0.027 µM | – | – | – | 3870 nM | – | –
10 | COc1cc(C2N=C(N)N=C(N)N2c2cccc(Cl)c2)cc(OC)c1OC (stereo not shown) [(Ib) R2=3,4,5-trimethoxyphenyl] | 960 ± 79 nM | 1.01 ± 0.027 µM | 1.0 | – | – | – | > 50 µM | – | – | – | – | – | –
11 | COc1ccc(C2N=C(N)N=C(N)N2c2cccc(Cl)c2)cc1OC (stereo not shown) [(Ib) R2=3,4-dimethoxyphenyl] | 27.2 ± 2 nM | 0.164 ± 0.006 µM | 6.0 | – | – | – | 6.82 µM | – | – | – | – | – | –
12 | COc1cc(OC)cc(C2N=C(N)N=C(N)N2c2cccc(Cl)c2)c1 (stereo not shown) [(Ib) R2=3,5-dimethoxyphenyl] | 79.4 ± 7 nM | 0.0309 ± 0.003 µM | 0.4 | – | – | – | > 50 µM | – | – | – | – | – | –
13 | NC1=NC(c2cccc(Oc3cc(Cl)cc(Cl)c3)c2)N(c2cccc(Cl)c2)C(N)=N1 (stereo not shown) [(Ib) R2=3-(3,5-dichlorophenoxy)phenyl] | 1.8 ± 0.6 nM | 0.0047 ± 0.0004 µM | 2.6 | – | – | – | 5.47 µM | – | – | – | – | – | –
14 | NC1=NC(c2cccc(O)c2)N(c2cccc(Cl)c2)C(N)=N1 (stereo not shown) [(Ib) R2=3-hydroxyphenyl] | 27.9 ± 4.5 nM | 0.0197 ± 0.0024 µM | 0.7 | – | – | – | 0.551 µM | – | – | – | – | – | –
15 | COc1cccc(C2N=C(N)N=C(N)N2c2cccc(Cl)c2)c1 (stereo not shown) [(Ib) R2=3-methoxyphenyl] | 5.4 ± 0.2 nM | 0.0591 ± 0.0063 µM | 10.9 | 1270 nM | 0.24 µM | 5.3 | 4.37 µM | – | – | – | – | – | –
16 | NC1=NC(c2ccc(OCc3cc(F)cc(F)c3)cc2)N(c2cccc(Cl)c2)C(N)=N1 (stereo not shown) [(Ib) R2=4-(3,5-difluorobenzyloxy)phenyl] | 4.4 ± 0.4 nM | 0.0074 ± 0.0007 µM | 1.7 | – | – | – | 3.78 µM | – | – | – | – | – | –

Row | Structure (SMILES) | Ki ([1]; Ki(wt) nM) | Ki [2] | Ki(mut)/Ki(wt) [3] | Ki ([4]; Human Ki (I50)(nM)) | Ki [5] | Selectivity [5] | IC50 [6] | Ki (human)/Ki (P. falc. mut) [7] | Ki (human)/Ki (P. falc. wt) [7] | Ki (human)/Ki (T. cruzi) [7] | Ki ([4]; read-out: Human Ki (I50)) | Ki ([1]; read-out: Ki(wt)) | Ki ([5]; T. cruzi DHFR-TS, read-out: T. cruzi Ki (I50))
17 | CCCOc1ccc(C2N=C(N)N=C(N)N2c2cccc(Cl)c2)cc1 (stereo not shown) [(Ib) R2=4-(n-propyloxy)phenyl] | – | 0.0093 ± 0.0006 µM | – | – | – | – | 0.248 µM | – | – | – | – | – | –
18 | NC1=NC(c2ccc(Br)cc2)N(c2cccc(Cl)c2)C(N)=N1 (stereo not shown) [(Ib) R2=4-bromophenyl] | 27 ± 4.5 nM | 0.0219 ± 0.0025 µM | 0.8 | – | – | – | 9.1 µM | – | – | – | – | – | –
19 | NC1=NC(c2ccc(O)cc2)N(c2cccc(Cl)c2)C(N)=N1 (stereo not shown) [(Ib) R2=4-hydroxyphenyl] | 59.1 ± 1 nM | 0.0577 ± 0.0075 µM | 1.0 | 56 nM | – | – | 3.07 µM | 0.97 | 0.95 | 1.17 | – | – | –
20 | COc1ccc(C2N=C(N)N=C(N)N2c2cccc(Cl)c2)cc1 (stereo not shown) [(Ib) R2=4-methoxyphenyl] | 21.8 ± 1 nM | 0.0125 ± 0.0009 µM | 0.6 | – | – | – | 2.56 µM | – | – | – | – | – | –
21 | Cl.NC1=NC(c2ccccc2)N(c2cccc(Cl)c2)C(N)=N1 (stereo not shown) [(Ib) R2=phenyl, 1-(3′-Chlorophenyl)-2-phenyl-4,6-diamino-1,2-dihydro-1,3,5-triazine hydrochloride] | 11.7 ± 2.5 nM | 0.01 ± 0.007 µM | 0.9 | – | – | – | 0.565 µM | – | – | – | – | – | –
22 | COc1ccc(Oc2cccc(C3N=C(N)N=C(N)N3c3ccc(Cl)c(Cl)c3)c2)cc1 (stereo not shown) [(Ic) R2=3-(4-methoxyphenoxy)phenyl] | 1.9 ± 0.3 nM | 0.0074 ± 0.0008 µM | 3.9 | – | – | – | 2.93 µM | – | – | – | – | – | –
23 | NC1=NC(c2cccc(Oc3ccccc3)c2)N(c2ccc(Cl)c(Cl)c2)C(N)=N1 (stereo not shown) [(Ic) R2=3-phenoxyphenyl] | 1.9 ± 0.3 nM | 0.0052 ± 0.0006 µM | 2.7 | – | – | – | 0.33 µM | – | – | – | – | – | –
24 | NC1=NCN(c2ccc(Cl)c(Cl)c2)C(N)=N1 [(Ic) R2=H] | 5.3 ± 0.7 nM | 0.0436 ± 0.0058 µM | 8.2 | – | 0.036 µM | 1.9 | 0.123 µM | – | – | 0.19 | – | – | –
25 | NC1=NC(c2ccccc2)N(c2ccc(Cl)c(Cl)c2)C(N)=N1 (stereo not shown) [(Ic) R2=Ph, 1-(3′,4′-Dichlorophenyl)-2-phenyl-4,6-diamino-1,2-dihydro-1,3,5-triazine hydrochloride] | – | – | – | – | – | – | 0.026 µM | – | – | – | – | – | –
26 | NC1=NC(c2cccc(OCc3ccccc3)c2)N(c2cccc(Cc3ccccc3)c2)C(N)=N1 (stereo not shown) [R2=3-BnOC6H4, X=H, Y=Bn, 1-m-benzylphenyl-2-m-benzyloxyphenyl-4,6-diamino-1,2-dihydro-1,3,5-triazine] | 2.3 ± 0.3 nM | 0.0074 ± 0.0009 µM | 3.2 | 292 nM | 0.032 µM | 9.1 | – | 39 | 127 | 9.1 | – | – | –
27 | NC1=NC(c2cccc(OCc3ccccc3)c2)N(c2cccc(OCc3ccccc3)c2)C(N)=N1 (stereo not shown) [R2=3-BnOC6H4, X=H, Y=BnO, 1-m-benzyloxyphenyl-2-m-benzyloxyphenyl-4,6-diamino-1,2-dihydro-1,3,5-triazine] | 4.3 ± 0.2 nM | 0.0072 ± 0.001 µM | 1.7 | 2130 nM | 0.128 µM | 16.6 | – | – | – | – | – | – | –
28 | COc1ccc(C2N=C(N)N=C(N)N2c2ccc(F)cc2)cc1 (stereo not shown) [R2=4-MeOC6H4, X=F, Y=H] | – | – | – | 26900 nM | 0.061 µM | 441 | – | – | – | 441 | – | – | –
29 | NC1=NCN(c2ccc(Br)cc2)C(N)=N1 [R2=H, X=Br, Y=H] | – | – | – | 480 nM | 0.1 µM | 4.8 | – | – | – | – | – | – | –
30 | Cl.NC1=NCN(c2ccccc2)C(N)=N1 [R=H, X=H, 1-(phenyl)-4,6-diamino-1,2-dihydro-1,3,5-triazine hydrochloride] | 329 ± 27 nM | 0.585 ± 0.07 µM | 1.8 | – | – | – | – | 2.44 | 4.35 | – | 1430 nM | – | –
31 | CC1(C)N=C(N)N=C(N)N1c1ccc(Cl)cc1 [cycloguanil, Cycloguanil, reference compound] | – | 1.31 µM | – | – | – | – | 0.04 µM | – | – | – | – | 1.5 nM | 0.37 µM
